Test results published in patent US8802597B2, “Herbicidal pyrimidines” (E I du Pont de Nemours and Company, priority 2003, dated 2014).

Columns and labels:
Experiment in all cases: Test C pre/postemergence
Type in all cases: in vivo
[1] = tested on: Surinam grass (Brachiaria decumbens); conditions: for Surinam Grass plant response rating: scale 0 to 100 (0 no effect, 100 complete control)
How it was run: (§1)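 Greenhouse pot test: seeds treated preemergence, or plants at 2–18 cm (1- to 4-leaf stage) treated postemergence, with compound in non-phytotoxic solvent plus surfactant. Visual rating versus untreated controls after 12–14 days, scale 0 (no effect) to 100 (complete control); dash means not tested.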

[2] = tested on: bermudagrass (Cynodon dactylon)
How it was run: as §1

[3] = tested on: common ragweed (Ambrosia elatior); conditions: for Ragweed plant response rating: scale 0 to 100 (0 no effect, 100 complete control)
How it was run: as §1

[4] = tested on: eastern black nightshade (Solanum ptycanthum); conditions: Preemergence
How it was run: as §1

[5] = tested on: giant foxtail (Setaria faberii); conditions: for Foxtail, Giant plant response rating: scale 0 to 100 (0 no effect, 100 complete control)
How it was run: as §1

[6] = tested on: goosegrass (Eleusine indica); conditions: for Goosegrass plant response rating: scale 0 to 100 (0 no effect, 100 complete control)
How it was run: as §1

[7] = tested on: lambsquarters (Chenopodium album); conditions: for Lambsquarters plant response rating: scale 0 to 100 (0 no effect, 100 complete control)
How it was run: as §1

[8] = tested on: morningglory (Ipomoea coccinea); conditions: for Morningglory plant response rating: scale 0 to 100 (0 no effect, 100 complete control)
How it was run: as §1

[9] = tested on: soybean (Glycine max); conditions: for Soybean plant response rating: scale 0 to 100 (0 no effect, 100 complete control)
How it was run: as §1

[10] = tested on: velvetleaf (Abutilon theophrasti); conditions: for Velvetleaf plant response rating: scale 0 to 100 (0 no effect, 100 complete control)
How it was run: as §1

[11] = tested on: woolly cupgrass (Eriochloa villosa); conditions: for Cupgrass, Woolly plant response rating: scale 0 to 100 (0 no effect, 100 complete control)
How it was run: as §1

[12] = tested on: yellow nutsedge (Cyperus esculentus); conditions: for Nutsedge, Yellow plant response rating: scale 0 to 100 (0 no effect, 100 complete control)
How it was run: as §1

[13] = Postemergence, 250 g ai/ha, scale 0 to 100
[14] = Preemergence, 31 g ai/ha, scale 0 to 100, 0 no effect, 100 complete control
[15] = Preemergence, 62 g ai/ha, scale 0 to 100, 0 no effect, 100 complete control
[16] = Preemergence, 125 g ai/ha, scale 0 to 100
[17] = Preemergence, 250 g ai/ha, scale 0 to 100

## CCCCOC(=O)c1nc(C2CC2)nc(N)c1Br [Compound 16]
[1]; Postemergence, 31 g ai/ha
  Plant response rating (scale of 0 to 100), Surinam Grass: 0
[1]; Postemergence, 62 g ai/ha
  Surinam Grass plant response rating: 0
[1]; Postemergence, 125 g ai/ha
  Surinam Grass plant response rating: 25
[1]; [13]
  Plant response rating, Surinam Grass: 55
[1]; [14]
  Plant response rating, Surinam Grass: 0
[1]; [15]
  Plant response rating, Surinam Grass: 0
[1]; [16]
  Plant response rating, Surinam Grass: 15
[1]; [17]
  Plant response rating, Surinam Grass: 80
[2]; Postemergence, 31 g ai/ha
  Plant response rating (scale of 0 to 100), Bermudagrass: 0
[2]; Postemergence, 62 g ai/ha, scale 0 to 100 (0 no effect, 100 complete control)
  Bermudagrass plant response rating: 0
[2]; [13]
  Plant response rating, Bermudagrass: 75
[2]; Postemergence, 125 g ai/ha, scale 0 to 100
  Plant response rating, Bermudagrass: 60
[2]; [14]
  Plant response rating, Bermudagrass: 0
[2]; [15]
  Plant response rating, Bermudagrass: 0
[2]; [16]
  Plant response rating, Bermudagrass: 0
[2]; [17]
  Plant response rating, Bermudagrass: 0
[3]; Postemergence, 31 g ai/ha
  Plant response rating (scale of 0 to 100), Ragweed: 60
[3]; Postemergence, 62 g ai/ha
  Ragweed plant response rating: 85
[3]; Postemergence, 125 g ai/ha
  Ragweed plant response rating: 95
[3]; [13]
  Plant response rating, Ragweed: 95
[3]; [14]
  Plant response rating, Ragweed: 45
[3]; [15]
  Plant response rating, Ragweed: 90
[3]; [16]
  Plant response rating, Ragweed: 95
[3]; [17]
  Plant response rating, Ragweed: 100
[4]; 31 g ai/ha, scale 0 to 100, 0 no effect, 100 complete control
  Plant response rating, Nightshade: 55
[4]; 62 g ai/ha, scale 0 to 100, 0 no effect, 100 complete control
  Plant response rating, Nightshade: 90
[4]; 125 g ai/ha, scale 0 to 100
  Plant response rating, Nightshade: 95
[4]; 250 g ai/ha, scale 0 to 100
  Plant response rating, Nightshade: 100
[5]; Postemergence, 31 g ai/ha
  Plant response rating (scale of 0 to 100), Foxtail, Giant: 0
[5]; Postemergence, 62 g ai/ha
  Foxtail, Giant plant response rating: 20
[5]; Postemergence, 125 g ai/ha
  Foxtail, Giant plant response rating: 55
[5]; [13]
  Plant response rating, Foxtail, Giant: 65
[5]; [14]
  Plant response rating, Foxtail, Giant: 0
[5]; [15]
  Plant response rating, Foxtail, Giant: 0
[5]; [16]
  Plant response rating, Foxtail, Giant: 0
[5]; [17]
  Plant response rating, Foxtail, Giant: 75
[6]; Postemergence, 31 g ai/ha
  Plant response rating (scale of 0 to 100), Goosegrass: 0
[6]; Postemergence, 62 g ai/ha
  Goosegrass plant response rating: 0
[6]; Postemergence, 125 g ai/ha
  Goosegrass plant response rating: 0
[6]; [13]
  Plant response rating, Goosegrass: 20
[6]; [14]
  Plant response rating, Goosegrass: 0
[6]; [15]
  Plant response rating, Goosegrass: 0
[6]; [16]
  Plant response rating, Goosegrass: 0
[6]; [17]
  Plant response rating, Goosegrass: 0
[7]; Postemergence, 31 g ai/ha
  Plant response rating (scale of 0 to 100), Lambsquarters: 95
[7]; Postemergence, 62 g ai/ha
  Lambsquarters plant response rating: 100
[7]; Postemergence, 125 g ai/ha
  Lambsquarters plant response rating: 100
[7]; [13]
  Plant response rating, Lambsquarters: 100
[7]; [14]
  Plant response rating, Lambsquarters: 95
[7]; [15]
  Plant response rating, Lambsquarters: 95
[7]; [16]
  Plant response rating, Lambsquarters: 100
[7]; [17]
  Plant response rating, Lambsquarters: 100
[8]; Postemergence, 31 g ai/ha
  Plant response rating (scale of 0 to 100), Morningglory: 85
[8]; Postemergence, 62 g ai/ha
  Morningglory plant response rating: 95
[8]; Postemergence, 125 g ai/ha
  Morningglory plant response rating: 100
[8]; [13]
  Plant response rating, Morningglory: 100
[8]; [14]
  Plant response rating, Morningglory: 65
[8]; [15]
  Plant response rating, Morningglory: 95
[8]; [16]
  Plant response rating, Morningglory: 100
[8]; [17]
  Plant response rating, Morningglory: 100
[9]; Postemergence, 31 g ai/ha
  Plant response rating (scale of 0 to 100), Soybean: 85
[9]; Postemergence, 62 g ai/ha
  Soybean plant response rating: 95
[9]; Postemergence, 125 g ai/ha
  Soybean plant response rating: 100
[9]; [13]
  Plant response rating, Soybean: 100
[9]; [14]
  Plant response rating, Soybean: 75
[9]; [15]
  Plant response rating, Soybean: 85
[9]; [16]
  Plant response rating, Soybean: 100
[9]; [17]
  Plant response rating, Soybean: 100
[10]; Postemergence, 31 g ai/ha
  Plant response rating (scale of 0 to 100), Velvetleaf: 55
[10]; Postemergence, 62 g ai/ha
  Velvetleaf plant response rating: 60
[10]; Postemergence, 125 g ai/ha
  Velvetleaf plant response rating: 65
[10]; [13]
  Plant response rating, Velvetleaf: 90
[10]; [14]
  Plant response rating, Velvetleaf: 25
[10]; [15]
  Plant response rating, Velvetleaf: 90
[10]; [16]
  Plant response rating, Velvetleaf: 95
[10]; [17]
  Plant response rating, Velvetleaf: 100
[11]; Postemergence, 31 g ai/ha
  Plant response rating (scale of 0 to 100), Cupgrass, Woolly: 0
[11]; Postemergence, 62 g ai/ha
  Cupgrass, Woolly plant response rating: 0
[11]; Postemergence, 125 g ai/ha
  Cupgrass, Woolly plant response rating: 0
[11]; [13]
  Plant response rating, Cupgrass, Woolly: 65
[11]; [14]
  Plant response rating, Cupgrass, Woolly: 0
[11]; [15]
  Plant response rating, Cupgrass, Woolly: 0
[11]; [16]
  Plant response rating, Cupgrass, Woolly: 15
[11]; [17]
  Plant response rating, Cupgrass, Woolly: 65
[12]; Postemergence, 31 g ai/ha
  Plant response rating (scale of 0 to 100), Nutsedge, Yellow: 0
[12]; Postemergence, 62 g ai/ha
  Nutsedge, Yellow plant response rating: 0
[12]; Postemergence, 125 g ai/ha
  Nutsedge, Yellow plant response rating: 0
[12]; [13]
  Plant response rating, Nutsedge, Yellow: 0
[12]; [14]
  Plant response rating, Nutsedge, Yellow: 0
[12]; [15]
  Plant response rating, Nutsedge, Yellow: 0
[12]; [16]
  Plant response rating, Nutsedge, Yellow: 0
[12]; [17]
  Plant response rating, Nutsedge, Yellow: 0
